# Data as given in patent US20250049747A1, “USE OF HYPERPOLARIZING AGENTS ALONE AND IN COMBINATION WITH OTHER THERAPEUTIC AGENTS FOR TREATING CANCERS INCLUDING GLIOBLASTOMA” (Trustees of Tufts College, priority 2021, published 2025).
# Values joined by “and” are separate entries in the source; they are usually repeats but may differ in a detail not shown here. Equal values may be shown once.
# Assays:
# human neuronal cells = test: Live/Dead assay on human neuronal cells; assay type: cell-based; conditions: human neurons, 3 day treatment
# Experimental: Human neuronal cells were differentiated from human induced neural stem cells (hiNSCs) (passage 7-10), a generous gift from David Kaplan, as described previously. Briefly, hiNSCs were grown on mouse embryonic fibroblast (MEF) feeder cells until ready to differentiate into neurons. Cells were then seeded on Poly-D-Lysine (A3890401, ThermoFisher) and laminin (L2020, Sigma) coated 96 well plates at a density of 128,000 cells/mL. Cells were differentiated in Neurobasal (12348017, ThermoFisher) media supplemented with 2% B27 (17504044, Gibco), 1% Glutamax, and 1% antibiotic-antimycotic for 7 days with media changes every 2 days. At the end of the 7 days the treatments were added in the differentiation media for 3 days.
# Dye Staining Protocols. For the Live/Dead assay, 1 μM Calcein Green AM and 0.5 μM ethidium homodimer-1 (L3224, ThermoFisher) were added to PBS along with 10 μg/mL of Hoechst to make the staining solution. Half the media was removed from the human neuronal cells that had been incubated with treatments for 3 days and replaced with staining solution. […] Cells were then incubated for 15 min at 37° C. and imaged. For resting membrane potential staining, DiBAC4(3) was used. U87 cells were seeded at 10,000 cells per mL on Matrigel coated plates as described above. […] Images were then analyzed using a CellProfiler pipeline. […]
# [1] = Reported clinical pharmacokinetics and blood-brain barrier penetrance (literature); conditions: human, in vivo; pantoprazole 240 mg/day, if proportional to the 30 mg/day dose
structure (smiles),measurement,setting,value
"COc1ccnc(C[S+]([O-])c2nc3ccc(OC(F)F)cc3[nH]2)c1OC (centres unmarked) [Pantoprazole, pantoprazole]",toxicity by Live/Dead stain compared to control,human neuronal cells,slight increase in toxicity that was significant compared to control
same,Cmax,[1],42000 ng/mL and ~110 µM
